Measurements as given in patent US20230038480A1, “SYSTEM FOR PRODUCITON OF HIGH YIELD OF RECOMBINANT PROTEINS” (UNIVERSITY OF MARYLAND, COLLEGE PARK, priority 2021, published 2023).

Columns and labels:
E. coli pAHL-GMCSF = experiment: AHL-induced porin formation and release of dsRedExpressII from E. coli pAHL-GMCSF; type: cell-based, Escherichia coli; details: about
Protocol: Protein secretion analysis. The target proteins DsRedExpress2 and GMCSF were analyzed. The supernatants of sample aliquots were recovered after centrifugation (6000 g, 2 min) to separate bacteria and subdivided fluorescence analysis (stored chilled) or immunoassaying (stored frozen). The relative fluorescence intensity of samples was measured using a BioTek Synergy platereader to determine DsRedExpress2 levels; additional quantification to correlate fluorescence to protein concentration was performed using a Bioanalyzer 2100 (Agilent Technologies, Santa Clara, Calif.). The His-tagged GMCSF peptide was quantified using a His Tag ELISA Detection Kit (GenScript) according to the provided protocol and 5-10 fold dilutions of frozen samples.

Structure (SMILES) | inducer concentration in solution (E. coli pAHL-GMCSF) | peroxide tolerated with negligible effect on cell viability (E. coli) | benign induction range (E. coli; in agreement with previous reports) | induction threshold required to achieve saturated protein expression (OxyR / PoxyS promoter)
CCCCCCCCCC(=O)CC(=O)N[C@H]1CCOC1=O [AHL, N-3-oxo-dodecanoyl-L-Homoserine lactone] | 100-500 nM of AHL | – | – | –
OO [peroxide, hydrogen peroxide] | – | up to 100 μM | 0 to 100 µM | 25 µM
